Laboratory results published in PMC9137037 (Frontiers in Oncology, 2022).
Where no end group is shown, it is not given here.

What was measured:
beagle dogs = assay: Antibody isotyping of sera of immunized beagle dogs; type: in vivo, dog; conditions: dogs #1-#3
[1] = target: T1, human recombinant protein PD-1 (Homo sapiens, UniProt Q15116); assay: ELISA activity of dog sera with human recombinant protein PD-1; type: binding; conditions: Figure 3F
T1 construct: His tag; purchased ACROBiosystems PD1-H5221
Protocol: (§1) For the detection of PD-1 human recombinant protein activity, the human recombinant protein PD-1 (PD1-H5221, HIS tag; ACROBiosystems, Newark, DE, USA) 100 μl at the concentration of […] were coated on the 96 wells plate as an antigen. The following procedures were performed as the description of ELISA.
In order to investigate the diversity of the antibody produced by immunized dogs, isotypes IgM, IgA, IgG1, and IgG2 in dogs were detected after being immunized with the peptide vaccine ( Figure 3E ). In MVF-PD-1(92-110) vaccine-treated dogs, the majority of isotype is IgG2, which ranged from 74% to 81%, the IgG1 range from 12% to 18%, IgM from 5% to 9%, and IgA less than 2%. Peptide sera from dogs #1, 2, and 3 were used to detect the antibody activity against human recombinant protein PD-1.

[2] = target: T2, recombinant human PD-1 (rhPD-1) (Homo sapiens, UniProt Q15116); assay: ELISA of monkey serum with rhPD-1 as capture agent; type: binding; conditions: monkey sera
T2 construct: His tag; purchased ACROBiosystems PD1-H5221
Protocol: as §1
In a separate experiment, these monkey serum samples were tested using recombinant human PD-1 (rhPD-1) as the capture agent. […] See Table 2 for summary of mouse, dog, and non-human primate experiments.

T2 sequence (Q15116 25-288): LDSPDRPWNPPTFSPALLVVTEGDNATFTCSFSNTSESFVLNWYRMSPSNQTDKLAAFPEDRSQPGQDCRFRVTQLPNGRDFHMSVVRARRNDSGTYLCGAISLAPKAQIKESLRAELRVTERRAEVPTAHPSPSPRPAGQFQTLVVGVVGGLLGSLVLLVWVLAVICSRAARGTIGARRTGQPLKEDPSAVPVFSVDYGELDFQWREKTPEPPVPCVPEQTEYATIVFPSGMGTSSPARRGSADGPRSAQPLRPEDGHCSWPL
T1 sequence (Q15116 25-288): as above

## KLLSLIKGVIVHRLEGVEGPSLGAISLAPKAQIKESLRAEL [MVF-PD-1(92-110)]
Beagle dogs
  IgA isotype percentage: less than 2%
[1]
  activity against recombinant PD-1 protein (summary): high activity against recombinant PD-1 protein
[2]; days 29, 43, 57
  recognition of rhPD-1 by anti-APi2568 antibody in monkey serum (summary): high binding ability against rh-PD-1
[2]; days 29, 43, 57, listed as APi2568
  recognition of rhPD-1 by anti-APi2568 antibody in monkey serum (summary): some of the anti-APi2568 antibody formed in monkeys recognized rhPD-1
